{"source": "patent US20060020042A1", "about": "“Memantine for the treatment of mild and mild to moderate Alzheimer's disease” (Forest Laboratories, Inc., priority 2004, published 2006)", "key": {"NMDA receptor": {"test_system": "NMDA receptor", "details": "uncompetitive antagonist; cited from earlier work"}, "[1]": {"test_system": "outpatients with mild-to-moderate Alzheimer's disease", "assay": "CIBIC-plus in randomized, double-blind, placebo-controlled study", "assay_type": "in vivo, human", "details": "for CIBIC+ Non-Responder, number of patients / CIBIC+ Responder (ratings 1-4), number of patients / CIBIC+ Difference (memantine minus placebo, mean): Week 24, ITT; for CIBIC+ Difference (memantine minus placebo, mean): 20 mg/day", "from_the_text": "The present invention is based on results from a randomized, double-blind, placebo-controlled, multi-center, parallel-group study comparing memantine to placebo in outpatients diagnosed with probable AD according to […] criteria. Severity of mild to moderate was established using the Mini-Mental State Examination (MMSE) score (≧10 and ≦22; 0 is the lowest score and 30 is the highest score). In the study of the present invention, there were approximately 400 patients enrolled across 42 centers. Evaluation of primary efficacy was achieved by Alzheimer's Disease Assessment Scale-cognitive subscale (ADAS-cog) and the Clinician's Interview-Based Impression of Change including caregiver information (CIBIC-plus). Secondary efficacy was determined using Alzheimer's disease Cooperative Study-Activities of Daily Living (ADCS-ADL) and Neuropsychiatric Inventory (NPI) criteria. The CIBIC-Plus is a global rating that was derived through an independent, comprehensive interview with the patient and caregiver by an experienced rater/clinician who was barred from knowledge of all other psychometric test scores (after Baseline visit) conducted as part of this protocol and who is not otherwise familiar with the patient. Scores 1-3 indicate improvement; Score 4 indicates no change (as compared to baseline); Scores 5-7 indicate worsening. The CIBIC rater assessed disease severity at Baseline. Using the results from Baseline for reference, the rater then interviewed the patient and caregiver at the end of Weeks 4, 8, 12, 18 and 24 (or upon early termination), to obtain an “Impression of Change” rating. The format for this scale was derived from the Alzheimer's Disease Cooperative Study-Clinician's Global Impression of Change scale (ADCS-CGIC) (Schneider, L. et al, Alzheimer Dis Assoc Disord. 1997; 11 Suppl 2:S22-32). The CIBIC-plus was administered at each clinic visit starting with the Baseline visit. A “responder” is defined as a patient for whom the change from baseline (Visit 2) to Week 24 in ADAS-cog is less than or equal to -4. […] Results were evaluated over seven clinical visits; at initial screening, baseline, and the end of weeks 4, 8, 12, 18 and 24. The population of patients who received at least one dose of double-blind memantine, and completed at least one post-baseline efficacy evaluation of either the ADAS-cog or the CIBIC-plus is designated the “intent-to-treat” (ITT) population. The population of randomized patients who received at least one dose of double-blind study medication is designated the “safety population”. The randomized population designates all patients randomized into the study. This study was conducted as a fixed-dose study. All patients assigned to the memantine group received an initial dose of 5 mg per day; the dose was titrated in 5 mg weekly increments to a final dose of 20 mg/day (administered as two 5 mg tablets twice a day). Study drug was provided as blister packs containing masked study medication such that placebo and memantine tablets were visually identical, and all patients received four tablets of study medication daily (in combinations of memantine 5 mg tablets and matching placebo tablets). Transient dose adjustments were permitted between weeks 3 and 8 for patients experiencing dose-limiting adverse events. However, all patients were required to receive the target dose of 20 mg/day by the end of week 8. Patients not able to tolerate the target dose by week 8 were discontinued from the study. The CIBIC-plus rating was analyzed using the CMH test, controlling for study center ([…]). Descriptive statistics were calculated by visit."}, "[2]": {"test_system": "mild-to-moderate AD subjects", "assay": "Snodgrass picture naming activation task during PET", "assay_type": "in vivo, human", "protocol": "Snodgrass Picture Naming Task. […] In the present invention, all patients who were subjected to PET scanning were evaluated during imaging using the Snodgrass picture naming activation task, The use of a task during the FDG uptake was used to image increases in the hippocampus and temporal lobe. This Snodgrass Picture Naming activation task was sensitive to object naming, which is impaired in mild to moderate AD. The Snodgrass picture naming activation task and performance analysis was based, in part, on the speed of identification and articulation of the name that corresponds to a set of 260 pictures (Snodgrass and Vanderwart, J. Experimental Psychology: Human Learning and Memory 1980; 6(2): 174-215). The pictures are black-and-white line drawings executed according to a set of rules that provide consistency of pictorial representation. The pictures were standardized on four variables of central relevance to memory and cognitive processing: […]"}, "[3]": {"details": "LOCF, ITT, of 196 patients randomized to memantine"}}, "data": [{"molecule": "CC12CC3CC(C)(C1)CC(N)(C3)C2", "note": "[Memantine, 1-amino-3,5-dimethyladamantane]", "values": [{"measurement": "affinity for the NMDA receptor", "setting": "NMDA receptor", "value": "moderate affinity"}, {"measurement": "CIBIC-plus marked improvement, number of patients", "setting": "[1]; [3]", "value": 9, "unit": "patients"}, {"measurement": "CIBIC-plus marked worsening, number of patients", "setting": "[1]; [3]", "value": 1, "unit": "patients"}, {"measurement": "CIBIC-plus moderate improvement, number of patients", "setting": "[1]; [3]", "value": 27, "unit": "patients"}, {"measurement": "CIBIC-plus moderate worsening, number of patients", "setting": "[1]; [3]", "value": 18, "unit": "patients"}, {"measurement": "CIBIC-plus marked worsening, number of patients", "setting": "[1]; OC analysis", "value": 1, "unit": "patients"}, {"measurement": "CIBIC-plus minimal improvement, number of patients", "setting": "[1]; OC analysis", "value": 24, "unit": "patients"}, {"measurement": "CIBIC-plus moderate improvement, number of patients", "setting": "[1]; OC analysis", "value": 8, "unit": "patients"}, {"measurement": "CIBIC-plus moderate worsening, number of patients", "setting": "[1]; OC analysis", "value": 17, "unit": "patients"}, {"measurement": "CIBIC+ Non-Responder, number of patients", "setting": "[1]; LOCF analysis", "value": 64, "unit": "patients"}, {"measurement": "CIBIC+ Responder (ratings 1-4), number of patients", "setting": "[1]; LOCF analysis", "value": 132, "unit": "patients"}, {"measurement": "CIBIC+ Difference (memantine minus placebo, mean)", "setting": "[1]; LOCF analysis, p=0.004", "value": "−0.32"}, {"measurement": "CIBIC+ Non-Responder, number of patients", "setting": "[1]; LOCF analysis, listed as Mem", "value": "97/64 patients"}, {"measurement": "CIBIC+ Responder (ratings 1-4), number of patients", "setting": "[1]; LOCF analysis, listed as Mem", "value": "100/132 patients"}, {"measurement": "CIBIC+ Non-Responder, number of patients", "setting": "[1]; OC analysis", "value": 56, "unit": "patients"}, {"measurement": "CIBIC+ Responder (ratings 1-4), number of patients", "setting": "[1]; OC analysis", "value": 108, "unit": "patients"}, {"measurement": "CIBIC+ Difference (memantine minus placebo, mean)", "setting": "[1]; OC analysis, p=0.030", "value": "−0.26"}, {"measurement": "CIBIC+ Non-Responder, number of patients", "setting": "[1]; OC analysis, listed as Mem", "value": "81/56 patients"}, {"measurement": "CIBIC+ Responder (ratings 1-4), number of patients", "setting": "[1]; OC analysis, listed as Mem", "value": "85/108 patients"}, {"measurement": "CIBIC-plus, memantine-treated group compared with placebo", "setting": "[1]; by week 12, LOCF and OC", "value": "statistically significant improvement"}, {"measurement": "difference in Snodgrass performance between the two treatment groups", "setting": "[2]; memantine vs placebo", "value": "no significant difference"}, {"measurement": "Snodgrass picture naming activation task performance", "setting": "[2]; memantine-treated subjects during PET", "value": "better than chance"}]}]}
